Source: patent US20140363818A1, “EGFR and PAR2 Regulation of Intestinal Permeability” (UNIVERSITY OF MARYLAND, BALTIMORE, priority 2009, published 2014)
“Also recorded” adds a separate entry of the source.

Legend:
[1] = system: C57BL/6 WT murine small intestine segments; test: Ex vivo intestinal permeability (TEER) in the microsnapwell system; format: cell-based, mouse; details: for TEER change / intestinal permeability, dose-response experiment: C57BL/6 WT segments, zonulin 5-50 μg/well, trypsin-cleaved pre-HP2 50 μg/well
Experimental: The effect of zonulin/pre-HP2 on ex vivo intestinal permeability was monitored in the microsnapwell system as described (3). Briefly, segments of small intestine from C57BL/6 WT mice were mounted onto the microsnapwell system, and their luminal side was exposed for 30 min to medium alone or to the medium containing increasing concentrations of the purified recombinant zonulin. TEER was measured at time 0 and at 30-min time intervals for a period of 2 h using a planar electrode (Endohm SNAP electrode attached to an Evom-G WPI analyzer; World Precision Instruments) and expressed in Ω/cm^2 after normalization. […] In another set of experiments, zonulin was tested both in C57BL/6 WT and PAR2−/− mice. […]
Recombinant pre-HP2 (from now on defined as zonulin) was applied to WT C57BL/6 murine small intestine segments mounted in microsnapwells.

129/SvEv WT mice = test: In vivo gastrointestinal permeability with sugar probes (lactulose/mannitol, sucrose); design: species or system mouse; details: for small intestinal permeability (lacman ratio) vs BSA-treated controls / gastroduodenal permeability (sucrose fractional excretion) vs BSA-treated controls: 170 mg/mouse [sic], gavage, challenge day vs 3 days before; for small intestinal permeability (lacman ratio) vs BSA-treated controls: FIG. 4A; for gastroduodenal permeability (sucrose fractional excretion) vs BSA-treated controls: FIG. 4B
Experimental: They were acclimatized to the experimental techniques for 3 wk, by fasting the animals for 3 h, gavaging the animals with a sugar probe, and placing them in metabolic cages twice each wk. On the day of protein challenge, the animals received either 170 micrograms of the purified single-chain zonulin in a 60 microliter solution or a similar amount of purified 2-chain cleaved HP2, together with the sugar gavage as described (4). […] Two days after the drug challenge day, mice were again placed in metabolic cages to measure their recovery from the treatment.
To establish whether zonulin might alter intestinal permeability in vivo, mice were gavaged with the single chain recombinant pre-HP2 protein (170 mg/mouse), and gastroduodenal and small intestinal permeability tested using specific sugar probes (sucrose and lactulose/mannitol, respectively) as described (14).

EGFR = target: T1, EGFR (Homo sapiens, UniProt P00533); test: EGFR phosphorylation in serum-starved Caco-2 cells (immunoprecipitation / Western blot); format: cell-based; details: for EGFR phosphorylation compared with single chain zonulin: two-chain mature HP2 10 ml/ml as printed, Caco-2, FIG. 5D
T1 construct: serum-starved, high EGFR-expressing Caco-2 cells; endogenous in cells; host or cells: Caco-2
Experimental: PAR2 expression in Caco-2 cells was silenced using 2 different PAR2 siRNAs [HSS103471 and HSS103473 (50 nM each); Invitrogen].
The effect of zonulin on ex vivo and in vivo intestinal permeability was performed as described (8, 14) and reported above. To determine whether zonulin can activate EGFR, increasing concentrations of either zonulin or two-chain mature HP2 were added for increasing exposure times to serum-starved, high EGFR-expressing Caco-2 cells. The cells were lysed and processed for WB with anti-phospho EGFR (Y1068) Ab (Cell Signaling Technol. Inc.) as reported (40).
To determine whether zonulin can activate EGFR, increasing concentrations of baculovirus-derived, recombinant zonulin were added to Caco-2 intestinal epithelial cells. The cells were lysed, immunoprecipitated with anti-EGFR Ab, and processed for phosphotyrosine immunoblotting (PY-Plus).

PAR2 = target: T2, PAR2 (Mus musculus, UniProt P55086); details: demonstrated in WT, but not PAR2−/− mice; cited from earlier work
T2 sequence (P55086 26-399): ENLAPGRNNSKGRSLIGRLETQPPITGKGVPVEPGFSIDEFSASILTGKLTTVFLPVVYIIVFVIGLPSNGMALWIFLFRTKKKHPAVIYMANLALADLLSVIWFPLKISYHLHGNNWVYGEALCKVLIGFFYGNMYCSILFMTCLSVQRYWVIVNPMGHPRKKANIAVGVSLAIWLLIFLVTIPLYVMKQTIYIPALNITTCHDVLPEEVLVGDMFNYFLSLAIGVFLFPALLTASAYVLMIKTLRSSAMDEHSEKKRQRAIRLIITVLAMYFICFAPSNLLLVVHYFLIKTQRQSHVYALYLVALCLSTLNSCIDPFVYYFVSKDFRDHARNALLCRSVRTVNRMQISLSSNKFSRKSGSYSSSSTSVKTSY

## COc1cc2ncnc(Nc3cccc(Cl)c3)c2cc1OC [AG1478, reference compound]
[1]; 5 μM AG1478 with zonulin 10 μg/well, C57BL/6 WT, 90 min, FIG. 5C
  effect on zonulin-induced drop in TEER: abolished TEER reduction; also recorded: prevented

## zonulin: Recombinant human haptoglobin-2 precursor (pre-HP2), uncleaved single chain, expressed in a baculovirus system
129/SvEv WT mice
  small intestinal permeability (lacman ratio) vs BSA-treated controls: increases
  gastroduodenal permeability (sucrose fractional excretion) vs BSA-treated controls: increases
129/SvEv WT mice; listed as Zonulin/preHP2
  small intestinal permeability (lacman ratio) vs BSA-treated controls: increased
  gastroduodenal permeability (sucrose fractional excretion) vs BSA-treated controls: increased
129/SvEv WT mice; after zonulin challenge, FIG. 4C
  time for small intestinal permeability to return to pre-challenge values: ≤ 48 h
129/SvEv WT mice; after zonulin challenge, FIG. 4D
  time for gastroduodenal permeability to return to pre-challenge values: ≤ 48 h
[1]; FIG. 3
  TEER change / intestinal permeability, dose-response experiment: increased intestinal permeability in C57BL/6 WT mice in a dose-and time-dependent manner
[1]; C57BL/6 WT, 10 μg/well, baseline vs 90 min, FIG. 5C, 6B
  TEER change in wild-type intestinal segments: decreased TEER; also recorded: significant drop in TEER
[1]; PAR2−/− mice, 10 mg zonulin as printed, time 0 vs 90 min, FIG. 6B
  TEER change in PAR2−/− intestinal segments: failed to reduce TEER; also recorded: did not increase intestinal permeability
[1]; added to mucosal (luminal) aspect of WT C57BL/6 small intestine segments, FIG. 3
  concentration at which TEER decreased (increased permeability): ≥ 40 µg/mL
[1]; luminal side, C57BL/6 WT, starting at 60 min post-exposure, tested 5, 10, 25, 50 μg/well, FIG. 3
  concentration inducing significant drop in TEER: 10 μg/well
EGFR; Caco-2 cells, anti-EGFR IP, PY-Plus blot, FIG. 5A
  concentration at which tyrosine phosphorylation of EGFR increased: ≥ 3 mg/mL
EGFR; serum-starved Caco-2 cells, FIG. 5A
  concentration at which the dose-dependent increase in EGFR phosphorylation reached a plateau: 3 ml/ml
EGFR; zonulin 10 ml/well as printed, alone, serum-starved Caco-2, FIG. 5B
  EGFR phosphorylation vs media: increase in EGFR phosphorylation

## FCIGRL [AT1002]
PAR2
  changes in TEER: PAR2-dependent changes in TEER

B1: two-chain HP2: Cleaved two-chain mature HP2 (α2 and β chains) obtained by trypsin digestion of single chain zonulin (protein)
chain 1: VDSGNDVTDIADDGCPKPPEIAHGYVEHSVRYQCKNYYKLRTEGDGVYTLNDKKQWINKAVGDKLPECEADDGCPKPPEIAHGYVEHSVRYQCKNYYKLRTEGDGVYTLNNEKQWINKAVGDKLPECEAVCGKPKNPANPVQR
chain 2: ILGGHLDAKGSFPWQAKMVSHHNLTTGATLINEQWLLTTAKNLFLNHSENATAKDIAPTLTLYVGKKQLVEIEKVVLHPNYSQVDIGLIKLKQKVSVNERVMPICLPSKDYAEVGRVGYVSGWGRNANFKFTDHLKYVMLPVADQDQCIRHYEGSTVPEKKTPKSPVGVQPILNEHTFCAGMSKYQEDTCYGDAGSAFAVHDLEEDTWYATGILSFDKSCAVAEYGVYVKVTSIQDWVQKTIAENHHHHHH
129/SvEv WT mice
  small intestinal permeability (lacman ratio) vs BSA-treated controls: failed to alter; also recorded: no changes
  gastroduodenal permeability (sucrose fractional excretion) vs BSA-treated controls: failed to alter; also recorded: no changes
[1]; FIG. 3
  TEER change / intestinal permeability, dose-response experiment: no consistent TEER changes
EGFR
  EGFR phosphorylation compared with single chain zonulin: dramatically reduced
EGFR; listed as two-chain mature HP2
  EGFR phosphorylation compared with single chain zonulin: significantly reduced
